Data set [1] deals with tissue-resident proteases in Eml4-Alk lung tissue sections. The data set is described as follows: In situ zymography with AZPs on fresh-frozen lung tissue sections. Format: biochemical, mouse. As to conditions: for effect of inhibitor on Z1 tissue labeling: Eml4-Alk lung sections, 1 mM marimastat, 400 μM AEBSF or inhibitor cocktail; for AZP labeling of Eml4-Alk lung tissue: individual AZPs on consecutive sections, 7 weeks after tumor induction. As to the method: Mice were euthanized by isoflurane overdose. Lungs were then filled with undiluted optimal-cutting-temperature (OCT) compound through catheterization of the trachea; the trachea was subsequently clamped; and lungs were extracted. Individual lobes were dissected and then immediately embedded and frozen in optimal-cutting-temperature (OCT) compound (Sakura).
Cryosectioning was performed at the Koch Institute Histology Core. Prior to staining, slides were air dried, fixed in ice-cold acetone for 10 minutes, and then air dried. After hydration in PBS (3×5 minutes), tissue sections were blocked in protease assay buffer (50 mM Tris, 300 mM NaCl, 10 mM CaCl2), 2 mM ZnCl2, 0.02% (v/v) Brij-35, 1% (w/v) BSA, pH 7.5) for 30 minutes at room temperature. Blocking buffer was aspirated, and solution containing fluorescently labeled AZPs (1 μM each AZP) and a free poly-arginine control (polyR, 0.1 μM) diluted in the protease assay buffer was applied. Slides were incubated in a humidified chamber at 37° C. for 4 hours. For inhibited controls, 400 μM AEBSF (Sigma Aldrich), 1 mM marimastat (Sigma Aldrich), or protease inhibitor cocktail (P8340, Sigma Aldrich) spiked with AEBSF and marimastat was added to the buffer at both the blocking and cleavage assay steps. For uninhibited conditions, dimethyl sulfoxide (DMSO) was added to the assay buffer to a final concentration of 3% (v/v). For co-staining experiments, primary antibodies (E-cadherin, AF748, R&D Systems, 4 μg/mL; vimentin, ab92547, Abcam, 0.5 μg/mL; CD31, AF3628, R&D Systems, 10 μg/mL; desmin, ab227651, Abcam, 1.32 μg/mL) were included in the AZP solution. Following AZP incubation, slides were washed in PBS (3×5 minutes), stained with Hoechst (5 μg/mL, Invitrogen) and the appropriate secondary antibody if relevant (Invitrogen, 1:500), washed in PBS (3×5 minutes), and mounted with ProLong™ Diamond Antifade Mountant (Invitrogen). Slides were scanned on a Pannoramic 250 Flash III whole slide scanner (3DHistech).
The Z1 AZP (10 μmol/L) was incubated with recombinant fibroblast activation protein (FAP) in FAP assay buffer (50 mM Tris, 1 M NaCl, pH 7.5) overnight at 37° C. to run the cleavage reaction to completion. After precleavage with recombinant FAP, the AZP solution was diluted to a final peptide concentration of 0.1 μM in protease assay buffer. Cognate intact Z1 AZP (1 μmol/L) and precleaved Z1 AZP, each with a free polyR control (0.1 μM), were applied to fresh-frozen Eml4-Alk lung tissue sections (slide preparation described above) and incubated at 37° C. for 4 hours. After AZP incubation, slides were washed, stained with Hoechst, mounted, and scanned.
AZP and immunofluorescence staining was quantified in QuPath™ 0.2.3[53] and in ImageJ™ (NIH, v1.53). To perform cell-by-cell analysis, cell segmentation was performed using automated cell detection on the DAPI (nuclear) channel. For quantification of activity inhibition, AZP staining was calculated as a fold change of the mean nuclear AZP signal over the mean nuclear polyR signal. All nuclei within an individual tumor were averaged across that given tumor. Nuclei with a polyR intensity of less than 3 were excluded from analysis. For quantification of AZP intensity based on cell morphology and marker expression, cells were annotated as “vimentin-positive, spindle” if they were spindle-shaped and expressed vimentin; “E-cadherin-positive, cuboidal” if they were cuboidal-shaped and expressed E-cadherin; “vimentin-positive, round” if they were rounded and expressed vimentin. A random forest classifier was trained on all annotated cells (at least 20 cells per class) using multiple cellular features, including nuclear area and eccentricity, and mean cellular fluorescence intensity across all channels. The trained classifier was then applied to all cells across all tumors in the tissue section, and mean cellular fluorescence intensity was quantified.

Data set [2] deals with serine proteases of mouse colon tissue sections. Nature of the data set: AZP staining of frozen mouse colon sections. Format: biochemical. The source says: We validated the AZP principle on colon tissue, whose epithelial cells secrete serine proteases including urokinase plasminogen activator (uPA). We therefore synthesized a Cy5-labeled AZP, termed PZ2 (SEQ ID NO:176), containing a serine protease-cleavable linker. Because similar peptides had never been applied directly to frozen tissue sections, it was unknown whether AZPs would nonspecifically bind to the tissue, or whether proteolytic cleavage would be required for AZP binding. We therefore pre-cleaved PZ2 with a serine protease, mesotrypsin (PRSS3) and applied it to a frozen section of mouse colon for 30 minutes. As a binding control, we also applied intact, uncleaved PZ2 to a consecutive section of mouse colon.
Having verified that proteolytic cleavage induces AZP binding, we next sought to validate whether AZPs could enable localization of protease activity in situ (FIG. 19a). Specifically, it was unknown whether frozen tissue sections would maintain sufficient protease activity to induce probe cleavage or whether cleaved probes would bind at the site of cleavage rather than diffusing to a distant site. We applied PZ2 and a binding control (free polyR-Cy7) to fresh-frozen sections of mouse colon (FIG. 19b). […] These findings verified that protease activity in the tissue section was necessary and sufficient to activate AZPs. Strikingly, we found strong colocalization of PZ2 with E-cadherin, a specific marker of epithelial cells, providing evidence that cleaved AZPs bind at the site of cleavage, rather than diffusing to a distant site (FIG. 19d).

Data set [3] concerns homogenates of prostates from Hi-Myc PCa mice. The data set is described as follows: Multiplexed bead-coupled substrate screen against prostate homogenates. The format is biochemical, mouse. As to conditions: pre-treatment of Hi-Myc prostate homogenates. On the procedure: We turned to the Hi-Myc genetically engineered mouse model of PCa, wherein c-Myc is overexpressed in the murine prostate, resulting in invasive PCa. We selected a panel of 18 peptides previously found by our group to be recognized by a diverse array of metallo- and serine proteases dysregulated in PCa^20 and appended each with a unique, mass-encoded reporter molecule. We coupled these barcoded substrates to magnetic beads via a non-cleavable poly(ethylene glycol) (PEG) linker and incubated the bead cocktail against homogenates of prostates from PCa mice and from age-matched healthy controls (FIG. 20a). Beads were pulled down via magnetic separation, and liberated reporter molecules in the supernatant were measured by mass spectrometry, enabling quantification of substrate cleavage. Unsupervised hierarchical clustering of the cleavage data yielded two distinct clusters corresponding to prostates from PCa mice and prostates from healthy mice (FIG. 20b).

Data set [4] concerns MMP activity in Hi-Myc prostate tissue sections. The data set is described as follows: AZP staining of fresh-frozen Hi-Myc prostate sections. Format: biochemical, mouse. The source says: It was unknown whether AZPs could enable in situ localization of the cleavage of peptides discovered in a screen of bulk homogenates. We therefore synthesized a new AZP (PZ19: SEQ ID NO:186) and applied it to fresh-frozen sections of prostates from Hi-Myc mice (FIG. 21a). With the exception of the protease-cleavable linker and fluorophore, PZ19 was identical in design to the serine protease-responsive PZ2. […] PZ19 labeling was abrogated by the MMP inhibitor marimastat (FIG. 21b middle row), though the free polyR control was unchanged.
It was unknown whether AZPs could be used in conjunction with antibodies to enable dual zymography and immunofluorescence labeling. […] Further, PZ19 labeling and co-localization with Ki67 was abrogated by addition of marimastat (FIG. 21d).

Data set [5] relates to human PCa tissue microarray. The data set is described as follows: AZP staining of fresh-frozen human PCa tissue microarray (TMA). The format is biochemical. As to conditions: for labeling of PCa tissue relative to normal prostates: AZP signal normalized to polyR, normal n=4, PCa n=24 cores; for labeling with vs without broad-spectrum cocktail of protease inhibitors: consecutive TMA sections. The source says: Two AZPs incorporating MMP-responsive substrates, PZ16 (SEQ ID NO:184) and PZ19, and two AZPs incorporating serine protease-responsive substrates, Z2 (SEQ ID NO:172) and PZ11 (SEQ ID NO:180), were selected for evaluation. We applied these probes, along with a free polyR control, to a frozen human PCa TMA that contained biopsies from normal prostates and PCa tumors across a range of Gleason scores.
To determine whether AZP binding was dependent on proteolysis, for each probe a consecutive TMA section was treated with a broad-spectrum cocktail of protease inhibitors.
We then investigated whether AZPs preferentially labeled PCa tissue relative to normal prostates. […] AZP activation and tissue staining across the TMA was quantitatively assessed by normalizing AZP signal intensity to polyR signal to account for differing binding propensities within a single core and across individual specimens. […] We further assessed the classification accuracy of these two in situ probes using receiver operating characteristic (ROC) curves.

For data set [6], the system named is T1, PZ2, Cy5-labeled AZP containing a serine protease-cleavable linker.
T1 sequence: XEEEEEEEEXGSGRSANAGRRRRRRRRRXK

Data set [7] concerns T2, quenched probe Q1, incorporating the substrate S1.
T2 sequence: GGPQGIWGQC

*1 amine or outer side, *2 acyl side, *3 side chain or, on linkers, in order; H or OH if unused. Where no end group is shown, it is not given here. [ ]: non-standard residue; d: D form. The star is where a group is joined. 5FAM = O=C1OC2(c3ccc(O)cc3Oc3cc(O)ccc32)c2ccc(C(=O)*)cc21; Suc = O=C(CCC(=O)[*:2])[*:1]; Cy3 = Cy3 fluorophore label; Cy5 = Cy5 fluorophore label; Ahx = NCCCCCC(=O)O

`Cl.NCCc1ccc(S(=O)(=O)F)cc1` [AEBSF, 4-(2-aminoethyl)benzenesulfonyl fluoride hydrochloride, reference compound]: the “effect of inhibitor on Z1 tissue labeling” value in data set [1] was “completely abrogated Z1 tissue labeling to the level of broad-spectrum inhibition”. In addition, in data set [2] (four-hour incubation, mouse colon), the “effect of inhibitor on PZ2 staining” value is on record as “abrogated”. In addition, the “effect of inhibitor on cleavage of PM19” value in data set [3] is listed as “minimally affected cleavage”.

On to `CNC(=O)[C@@H](NC(=O)[C@H](CC(C)C)[C@H](O)C(=O)NO)C(C)(C)C` [marimastat, reference compound], for which the “effect of inhibitor on PZ19 labeling” value in data set [4] (Hi-Myc prostate sections) is on record as “abrogated”. Besides, in data set [1], the “effect of inhibitor on Z1 tissue labeling” value is given as “did reduce Z1 signal”. In addition, in data set [3], the “effect of inhibitor on cleavage of PM19” value is “fully inhibited cleavage of PM19”.

Turning to “U-eeeeeeee-X-GGLVPRGSGG-rrrrrrrrr-X-K(Cy5) (Suc-[dE][dE][dE][dE][dE][dE][dE][dE][Ahx]GGLVPRGSGG[dR][dR][dR][dR][dR][dR][dR][dR][dR][Ahx]K(Cy5)) [Z2]”, in data set [5], the “labeling of PCa tissue relative to normal prostates” value was “preferentially label PCa tissue” and the “labeling with vs without broad-spectrum cocktail of protease inhibitors” value is listed as “protease-dependent labeling”.

Turning to “U-eeeeeeee-X-GPVPLSLVMG-rrrrrrrrr-X-K(5FAM) (Suc-[dE][dE][dE][dE][dE][dE][dE][dE][Ahx]GPVPLSLVMG[dR][dR][dR][dR][dR][dR][dR][dR][dR][Ahx]K(5FAM)) [PZ19]”, the “probe labeling of Hi-Myc prostate sections” value in data set [4] (fresh-frozen sections) is listed as “PZ19 labeling in histologically normal glands of the Hi-Myc prostate”. Moreover, the “PZ19 labeling of normal mouse prostate” value in data set [4] (histologically similar region of healthy prostate) is recorded as “reduced PZ19 labeling”. In addition, in data set [5], the “labeling of PCa tissue relative to normal prostates” value is “no significant difference between PCa and normal cores”; the “labeling with vs without broad-spectrum cocktail of protease inhibitors” value was “no difference between the uninhibited and inhibited conditions”.

“U-eeeeeeee-X-GSGRSANAG-rrrrrrrrr-X-K(Cy5) (Suc-[dE][dE][dE][dE][dE][dE][dE][dE][Ahx]GSGRSANAG[dR][dR][dR][dR][dR][dR][dR][dR][dR][Ahx]K(Cy5)) [PZ2]”: in data set [2] (four-hour incubation), the “probe staining of fresh-frozen mouse colon sections” value is reported as “strong PZ2 staining”. The “fluorescence of colon sections treated with intact probe” value in data set [2] (intact, 30 minutes) is given as “minimal fluorescence”. In addition, in data set [2] (pre-cleaved with mesotrypsin (PRSS3), 30 minutes), the “fluorescence of colon sections treated with pre-cleaved probe” value is “notable fluorescent signal throughout”.

Regarding “U-eeeeeeee-X-GsGrsanaG-rrrrrrrrr-X-K(Cy5) (Suc-[dE][dE][dE][dE][dE][dE][dE][dE][Ahx]G[dS]G[dR][dS][dA][dN][dA]G[dR][dR][dR][dR][dR][dR][dR][dR][dR][Ahx]K(Cy5)) [dPZ2, AZP with a non-cleavable d-stereoisomer linker]”, the “probe staining of fresh-frozen mouse colon sections” value in data set [2] (four-hour incubation) is given as “no Cy5 fluorescence”.

As for “UeeeeeeeeXGGLGPKGQTGGrrrrrrrrrX-k(Cy3) (Suc-[dE][dE][dE][dE][dE][dE][dE][dE][Ahx]GGLGPKGQTGG[dR][dR][dR][dR][dR][dR][dR][dR][dR][Ahx][dK](Cy3)) [Z7]”, the “AZP labeling of Eml4-Alk lung tissue” value in data set [1] was “protease-mediated, tumor-specific labeling”.

For the compound “UeeeeeeeeXGGPQGIWGQGrrrrrrrrrX-k(Cy5) (Suc-[dE][dE][dE][dE][dE][dE][dE][dE][Ahx]GGPQGIWGQG[dR][dR][dR][dR][dR][dR][dR][dR][dR][Ahx][dK](Cy5)) [Z1]”, the “Z1 staining in CD31-high cells of Eml4-Alk sections relative to CD31-high healthy and CD31-low cells” value in data set [1] (Eml4-Alk and healthy lung sections) is “significantly increased”. The “Z1 intensity in vimentin-positive spindle-like cells relative to E-cadherin-positive or vimentin-positive rounded cells” value in data set [1] (Eml4-Alk tumors) was “increased Z1 intensity”. For the same compound, the “Z1 staining of Eml4-Alk tumors” value in data set [1] (Eml4-Alk tumors vs free polyR binding control) is on record as “strong, spindle-like staining”. In addition, in data set [1] (healthy lung sections), the “Z1 staining of healthy lungs” value is on record as “undetectable”. Also, in data set [1], the “AZP labeling of Eml4-Alk lung tissue” value is recorded as “protease-mediated, tumor-specific labeling”. Further, the “tissue labeling pattern of intact Z1” value in data set [1] (intact Z1 1 μmol/L, 37° C. 4 hours, Eml4-Alk tumors) is given as “maintained its spindle-like spatial pattern”. The “tissue labeling pattern of FAP-precleaved Z1” value in data set [1] (precleaved with recombinant FAP, 0.1 μM, Eml4-Alk tumors) is “diffuse, uniform labeling that mirrored that of a free polyR”.

As for mesotrypsin (PRSS3), in data set [6], the “in vitro pre-cleavage of the probe, read out by tissue fluorescence” value is on record as “We therefore pre-cleaved PZ2 with a serine protease, mesotrypsin (PRSS3)”.

For “recombinant fibroblast activation protein (FAP)”, in data set [7], the “fluorescence activation monitored over time (cleavage of quenched probe)” value is on record as “Fibroblast activation protein (FAP) cleaves S1 in vitro”.

These data come from US20250003968A1, “ACTIVITY-BASED CELL SORTING” (MASSACHUSETTS INSTITUTE OF TECHNOLOGY, priority 2021, published 2025).
